Values joined by “and” are separate entries in the source; they are usually repeats but may differ in a detail not shown here. Identical values can stand only once.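 Protocol summary: plate cells (96-well), add compound at 5 concentrations, incubate 48 h, interpolate endpoints linearly. GI50: concentration for 50% inhibition of growth. TGI: total growth inhibition.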
Columns and labels:
Assay in all cases: NCI-60 cell line screen, 48 h
786-0 renal = system: 786-0 renal
A498 renal = system: A498 renal
DU-145 prostate = system: DU-145 prostate
IGROV1 ovarian = system: IGROV1 ovarian
LOX IMVI melanoma = system: LOX IMVI melanoma
M14 melanoma = system: M14 melanoma
MCF7 breast = system: MCF7 breast
MDA-MB-435 = system: MDA-MB-435
NCI-H522 lung = system: NCI-H522 lung
OVCAR-8 ovarian = system: OVCAR-8 ovarian
U251 CNS = system: U251 CNS
UACC-257 melanoma = system: UACC-257 melanoma
CCRF-CEM leukemia = system: CCRF-CEM leukemia

Row | Compound | TGI (786-0 renal) | TGI (A498 renal) | TGI (DU-145 prostate) | TGI (IGROV1 ovarian) | TGI (LOX IMVI melanoma) | TGI (M14 melanoma) | TGI (MCF7 breast) | TGI (MDA-MB-435) | TGI (NCI-H522 lung) | TGI (OVCAR-8 ovarian) | TGI (U251 CNS) | TGI (UACC-257 melanoma) | TGI (CCRF-CEM leukemia) [µM] | GI50 (NCI-H522 lung) [µM] | GI50 (A498 renal) | GI50 (CCRF-CEM leukemia) | GI50 (DU-145 prostate) | GI50 (MCF7 breast) | GI50 (OVCAR-8 ovarian)
1 | CC(=O)O[C@@H]1C[C@]2(C(=O)c3ccccc3)C(=O)C(=O)S[C@]12c1ccccc1 | > 100 µM | > 100 µM | > 100 µM | > 100 µM | > 100 µM | > 100 µM | > 100 µM | > 100 µM | > 100 µM | > 100 µM | > 100 µM | > 100 µM | – | – | – | – | – | – | –
2 | C[C@H]1C[C@@H]2[C@H]([C@@H](O)C[C@@]3(C)[C@H]2CC[C@]3(O)C(=O)CO)[C@@]2(C)C=CC(=O)C=C12 | > 100 µM | > 100 µM | – | > 100 µM | > 100 µM | > 100 µM | – | – | > 100 µM | > 100 µM | – | > 100 µM | > 100 | – | – | – | – | – | –
3 | CC(C)(C)[Si](OC1CCOC1=O)(c1ccccc1)c1ccccc1 (configuration not stated) | – | 63.8 µM | – | > 100 µM | 32.2 µM | 38.4 µM | – | – | 38 µM | 70.9 µM | 30.1 µM | 50.4 µM | > 100 | – | – | – | – | – | –
4 | COc1cc2c(c(OC)c1OC)-c1ccc(OC)c(=O)cc1C(NC(=O)COc1ccccc1)CC2 (configuration not stated) | 93.8 µM | 2.46 µM | < 0.01 µM | > 92.3 µM | > 82.6 µM | > 21.5 µM | > 49.4 µM | < 0.01 µM | < 0.01 µM | 13.1 µM | 13 µM | > 100 µM | > 63.4 | – | – | – | – | – | –
5 | Cc1ccc(O)c(Cc2nc3ccccc3nc2-c2cccc(Cl)c2)c1 | > 100 µM | – | > 100 µM | > 100 µM | > 100 µM | > 100 µM | > 100 µM | 54.9 µM | 79 µM | > 100 µM | > 100 µM | > 100 µM | – | – | – | – | – | – | –
6 | COc1cc(C(=O)NC2CCc3cc(OC)c(OC)c(OC)c3-c3ccc(OC)c(=O)cc32)cc(OC)c1OC (configuration not stated) | 70.9 µM | 8.44 µM | – | 71.6 µM | > 100 µM | 10.5 µM | > 100 µM | 0.0961 µM | 0.0544 µM | > 46.1 µM | 33.4 µM | 59.3 µM | > 35 | – | – | – | – | – | –
7 | c1ccc2c(CSCc3cccc4ccccc34)cccc2c1 | > 100 µM | > 100 µM | > 100 µM | > 100 µM | > 100 µM | > 100 µM | – | > 100 µM | > 100 µM | > 100 µM | > 100 µM | > 100 µM | > 100 | – | – | – | – | – | –
8 | C[n+]1cccc(NC(=O)c2ccc(NC(=O)C34CCC(C(=O)Nc5ccc(C(=O)Nc6ccc[n+](C)c6)cc5)(CC3)CC4)cc2)c1 | > 100 µM | > 100 µM | – | > 100 µM | > 100 µM | > 100 µM | – | – | > 100 µM | > 100 µM | > 100 µM | > 100 µM | > 100 | – | – | – | – | – | –
9 | CCCCc1ccc(N=C(N)N)cc1 | 48.8 µM | > 100 µM | > 100 µM | 71.7 µM | > 100 µM | 63.5 µM | 46.3 µM | > 100 µM | > 100 µM | > 100 µM | > 100 µM | > 100 µM | 53.7 | – | – | – | – | – | –
10 | CC(=O)Oc1ccccc1 | > 100 µM | > 100 µM | – | > 100 µM | > 100 µM | > 100 µM | – | – | > 100 µM | > 100 µM | > 100 µM | > 100 µM | > 100 | – | – | – | – | – | –
11 | O=C(C=P(c1ccccc1)(c1ccccc1)c1ccccc1)c1ccc(-c2cccs2)cc1 | 17.6 µM | 10.8 µM | 22.3 µM | 21.2 µM | 19.6 µM | 7.75 µM | 11.7 µM | 10.9 µM | 12 µM | 17.8 µM | 14.7 µM | 6.35 µM | 22.1 | – | – | – | – | – | –
12 | CCCCN1C(=O)C2Cc3c([nH]c4ccccc34)C(c3cccc(O)c3)N2C1=O (configuration not stated) | 34.4 µM | 32.8 µM | 33.1 µM | 31.3 µM | 32.2 µM | 34.4 µM | 36.2 µM | 32.4 µM | 39.9 µM | 33.2 µM | 33.5 µM | 33.9 µM | 36.2 | – | – | – | – | – | –
13 | CNC(=O)OCc1nc(SC)n(C)c1CO | – | > 100 µM | – | > 100 µM | > 100 µM | – | > 100 µM | – | > 100 µM | > 100 µM | > 100 µM | > 100 µM | > 100 | – | – | – | – | – | –
14 | COC1/C=C(C)/C=C/C(C)/C=C/C(=O)OC(/C(C)=C/C=C(\C)CNC(=O)[C@H](CO)NC=O)C(C)/C=C/C=C/C(OC)CC/C=C(C)/C=C/C1 (some centres not stated) | > 1 µM | > 1 µM | > 1 µM | > 1 µM | > 1 µM | 0.0356 µM | > 1 µM | 0.047 µM | > 1 µM | > 1 µM | > 1 µM | > 0.206 µM | > 1 | 0.0362 | – | – | – | – | –
15 | CN1C=c2c3c(ccc2=C2C=CC4C=C5OCOC5=CC4=C21)OCO3 (configuration not stated) | 2.65 µM and 3.06 µM | 5.04 µM and 27.1 µM | 3.76 µM and 24.3 µM | 3.05 µM and 4.01 µM | 3.17 µM and 3.33 µM | 2.55 µM and 3.78 µM | 2.89 µM and 17.4 µM | 2.45 µM and 3.61 µM | 2.76 µM and 3.3 µM | 1.64 µM and 4.19 µM | 3.05 µM and 5.73 µM | 3.26 µM and 10.1 µM | – | – | 2.24 µM and 14.1 µM | 0.21 µM and 1.03 µM | 2.2 µM and 11.9 µM | 1.48 µM and 4.4 µM | 0.423 µM and 1.52 µM
16 | O=C(CSCC(=O)N/N=C/c1ccc2c(c1)OCO2)N/N=C/c1ccc2c(c1)OCO2 | > 100 µM | > 100 µM | > 100 µM | > 100 µM | > 100 µM | > 100 µM | > 100 µM | > 100 µM | > 100 µM | > 100 µM | > 100 µM | > 100 µM | > 100 | – | – | – | – | – | –
17 | COc1ccccc1/C=C/c1ccnc2ccccc12 | 27.7 µM | 29.5 µM | 30.8 µM | 19.9 µM | 36 µM | 29.7 µM | 17.5 µM | 19.9 µM | – | 30.2 µM | 24.2 µM | 29.5 µM | 34.8 | – | – | – | – | – | –
18 | CCOC(=O)c1cnc(N(C)C)nc1SC(=N)N | > 100 µM | > 100 µM | > 100 µM | > 100 µM | > 100 µM | > 100 µM | > 100 µM | > 100 µM | > 100 µM | > 100 µM | > 100 µM | > 100 µM | – | – | – | – | – | – | –
19 | CC(=O)Nc1ccc2c(c1)/C(=C\c1ccc([N+](C)(C)C)cc1)c1ccccc1-2 | > 100 µM | > 100 µM | > 100 µM | > 100 µM | > 100 µM | 33.8 µM | > 100 µM | > 100 µM | > 100 µM | > 100 µM | > 100 µM | 79.1 µM | 50.9 | – | – | – | – | – | –
